These are literature values, as cited in patent US10976308B2, “Plant-derived nanofibrillar cellulose hydrogel for cell culture and chemical testing” (UPM-KYMMENE CORPORATION, priority 2014, dated 2021).

The conditions of data set [1]: by Khetani et al. 2013.
A further data set has as its system 3D liver models. The settings on record: by Khetani et al. 2013.

Consider `O=C(O)Cc1ccccc1Nc1c(Cl)cccc1Cl` [diclofenac], for which the Cmax (usually the highest concentration seen after dosing) in data set [1] is 8 µM.
For `CN(C)CCCN1c2ccccc2CCc2ccccc21` [imipramine], the “Toxicity in 3D liver models” value with 3D liver models is “toxicity is not detected in all 3D models tested”.
For the compound `CC(C)NCC(O)COc1cccc2ccccc12` (stereo not shown) [propranolol], in data set [1], the Cmax was 0.2 µM. In the data set with 3D liver models, the “Toxicity in 3D liver models” value is “not detected in the 3D liver models”.
